Measurements from US11865110B2, “Thrombin inhibitors, formulations, and uses thereof” (VERSEON INTERNATIONAL CORPORATION, priority 2018, dated 2024).

Test system: platelet activation (mouse thrombin)
Assay: Inhibition of platelet activation in CD-1 mouse plasma
Type: cell-based
Conditions: CD-1 mouse platelet-rich plasma, Chrono-Lume luminescence, read-out: EC50 towards inhibited platelet activation
Procedure: Assays for inhibition of platelet activation in mouse plasma were performed by the following procedure. Test compounds and positive controls were first diluted in a three-fold series in DMSO to generate a range of concentrations for each from 1500 to 0.08 μM. 2 μL of each sample solution was then placed in corresponding wells of a 96-well plate (the “assay plate”) containing 88 μL of a platelet-rich plasma (PRP) mix described below. 10 μL of a 10 nM solution of mouse thrombin in assay buffer (described below) was then added to each well of the assay plate. The plate was then shaken on a Lab-Line Instruments Inc. titer plate shaker for 2 minutes at 300 RPM. 10 uL of Chrono-Lume® solution was then added to each well. The plate was again shaken for 3 minutes at 300 RPM. Luminescence data were recorded from a plate reader. Each sample was measured in duplicate and against blanks with and without mouse thrombin to record background and maximum signal measurements. The IC50 data were automatically calculated from the measured luminescence counts by means appreciated by one of skill in the art.
The various solutions involved in this procedure are described as follows. Assay buffer was made by combining 7.5 mL of 5 M NaCl with 1.19 g of HEPES powder, 0.5 mL of 1 M MgCl2, 1.5 mL of 1 M KCl and 235 mL of water in a 500 mL flask. The solution's pH was adjusted to 7.4 using 10 N NaOH, and then brought up to a final volume of 250 mL using water. A 20 mM solution of H-Gly-Pro-Arg-Pro-OH (GPRP) in this assay buffer was made from commercially obtained powder. The PRP Mix was made by first centrifuging down 600 μL of whole CD-1 mouse blood in 1.8 mL sodium citrate vacutainers at 100×g for 10 minutes at room temperature in an Eppendorf 5810 R centrifuge. The plasma layer was then extracted along with as much as possible of the buffy coat into storage vials. Extractions from multiple animals were often pooled together. To make the final mix, 2.3 mL of these plasma extractions was combined with 7.2 mL of the above assay buffer and 0.5 mL of the 20 mM GPRP solution. […]

SMILES | EC50 [µM]
CC(C)(N)Cn1cccc(-c2cc(NCc3ccc(Cl)s3)n(C(=O)c3ccoc3)n2)c1=O [Compound 9, 1-(2-amino-2-methylpropyl)-3-(5-{[(5-chlorothiophen-2-yl)methyl]amino}-1-(furan-3-carbonyl)-1H-pyrazol-3-yl)-1,2-dihydropyridin-2-one] | 0.032
CC(C)(C)C(=O)n1nc(-c2cccn(CCC(=O)O)c2=O)cc1NCc1ccc(Cl)s1 [Compound 1, 3-[3-(5-{[(5-chlorothiophen-2-yl)methyl]amino}-1-(2,2-dimethylpropanoyl)-1H-pyrazol-3-yl)-2-oxo-1,2-dihydropyridin-1-yl]propanoic acid] | 15
CC(C)(C)C(=O)n1nc(-c2cccn(CC(=O)O)c2=O)cc1NCc1ccc(Cl)s1 [Compound 4, 2-[3-(5-{[(5-chlorothiophen-2-yl)methyl]amino}-1-(2,2-dimethylpropanoyl)-1H-pyrazol-3-yl)-2-oxo-1,2-dihydropyridin-1-yl]acetic acid] | 15
